How the values were obtained:
[1] = molecular target: T1, Mitogen-activated protein kinase kinase kinase 19 (Homo sapiens) (UniProt Q56UN5); assay: Selectivity interaction (KinomeScan (DiscoverX)) EUB0001550a MAP3K19; conditions: at 1 µM
T1 sequence (whole entry): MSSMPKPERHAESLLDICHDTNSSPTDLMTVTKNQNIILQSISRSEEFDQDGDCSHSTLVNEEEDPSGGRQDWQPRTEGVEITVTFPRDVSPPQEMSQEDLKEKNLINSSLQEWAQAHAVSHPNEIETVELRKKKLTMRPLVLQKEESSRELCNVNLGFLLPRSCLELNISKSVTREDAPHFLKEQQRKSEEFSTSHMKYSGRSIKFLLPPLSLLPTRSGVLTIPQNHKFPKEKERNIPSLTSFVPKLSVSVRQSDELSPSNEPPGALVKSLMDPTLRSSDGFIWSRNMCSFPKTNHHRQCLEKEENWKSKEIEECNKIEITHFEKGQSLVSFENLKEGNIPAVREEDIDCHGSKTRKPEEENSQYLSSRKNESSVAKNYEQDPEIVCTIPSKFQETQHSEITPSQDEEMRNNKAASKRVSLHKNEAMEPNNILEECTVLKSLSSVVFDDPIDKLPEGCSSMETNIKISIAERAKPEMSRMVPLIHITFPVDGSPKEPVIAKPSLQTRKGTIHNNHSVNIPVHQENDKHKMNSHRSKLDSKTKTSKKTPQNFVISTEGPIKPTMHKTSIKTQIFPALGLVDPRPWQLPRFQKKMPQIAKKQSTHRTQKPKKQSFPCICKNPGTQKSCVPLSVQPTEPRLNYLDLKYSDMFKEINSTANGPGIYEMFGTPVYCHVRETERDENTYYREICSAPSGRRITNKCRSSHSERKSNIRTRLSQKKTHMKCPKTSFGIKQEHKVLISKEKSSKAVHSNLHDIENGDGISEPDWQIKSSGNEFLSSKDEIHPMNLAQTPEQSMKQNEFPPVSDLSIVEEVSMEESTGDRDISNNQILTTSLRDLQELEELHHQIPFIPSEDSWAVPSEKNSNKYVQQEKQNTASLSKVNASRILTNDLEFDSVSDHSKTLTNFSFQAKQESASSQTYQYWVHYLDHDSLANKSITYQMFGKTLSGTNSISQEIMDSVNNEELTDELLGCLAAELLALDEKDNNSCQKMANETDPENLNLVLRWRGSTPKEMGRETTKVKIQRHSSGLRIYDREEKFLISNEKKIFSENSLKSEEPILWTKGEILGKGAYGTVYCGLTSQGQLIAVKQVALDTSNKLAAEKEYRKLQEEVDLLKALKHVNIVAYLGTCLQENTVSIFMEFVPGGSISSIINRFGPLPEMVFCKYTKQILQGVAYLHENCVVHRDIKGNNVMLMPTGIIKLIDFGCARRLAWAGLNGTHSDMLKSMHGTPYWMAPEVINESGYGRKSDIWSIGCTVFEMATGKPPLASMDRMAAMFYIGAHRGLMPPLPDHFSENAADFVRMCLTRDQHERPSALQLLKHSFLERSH

[2] = molecular target: Serine/threonine-protein kinase A-Raf (Homo sapiens) (UniProt P10398); assay: Selectivity interaction (Kinase panel (KiNativ target engagement assay in Jurkat cells)) EUB0001635a ARAF; format: cell-based; conditions: Selectivity number of off-targets 0.0, Selectivity number of targets 233.0, Source Knowledge https://www.sciencedirect.com/science/article/pii/S2451945619300674?via%3Dihub, at 1 µM
[3] = molecular target: Serine/threonine-protein kinase/endoribonuclease IRE1 (Homo sapiens) (UniProt O75460); conditions: at 10 µM
[4] = tested on: Dual specificity mitogen-activated protein kinase kinase 1 (Homo sapiens), Q02750 [S218D,S222D]; assay: (§1) Selectivity interaction (LanthaScreen Eu Kinase Binding Assay) EUB0001632a MAP2K1; conditions: at 10 µM
[5] = molecular target: Dual specificity mitogen-activated protein kinase kinase 1 (Homo sapiens, UniProt Q02750); assay: as §1; conditions: at 10 µM
[6] = molecular target: T2, Serine/threonine-protein kinase tousled-like 1 (Homo sapiens) (UniProt Q9UKI8); assay: Selectivity interaction (LanthaScreen Eu Kinase Binding Assay) EUB0001632a TLK1; conditions: at 10 µM
T2 sequence (whole entry): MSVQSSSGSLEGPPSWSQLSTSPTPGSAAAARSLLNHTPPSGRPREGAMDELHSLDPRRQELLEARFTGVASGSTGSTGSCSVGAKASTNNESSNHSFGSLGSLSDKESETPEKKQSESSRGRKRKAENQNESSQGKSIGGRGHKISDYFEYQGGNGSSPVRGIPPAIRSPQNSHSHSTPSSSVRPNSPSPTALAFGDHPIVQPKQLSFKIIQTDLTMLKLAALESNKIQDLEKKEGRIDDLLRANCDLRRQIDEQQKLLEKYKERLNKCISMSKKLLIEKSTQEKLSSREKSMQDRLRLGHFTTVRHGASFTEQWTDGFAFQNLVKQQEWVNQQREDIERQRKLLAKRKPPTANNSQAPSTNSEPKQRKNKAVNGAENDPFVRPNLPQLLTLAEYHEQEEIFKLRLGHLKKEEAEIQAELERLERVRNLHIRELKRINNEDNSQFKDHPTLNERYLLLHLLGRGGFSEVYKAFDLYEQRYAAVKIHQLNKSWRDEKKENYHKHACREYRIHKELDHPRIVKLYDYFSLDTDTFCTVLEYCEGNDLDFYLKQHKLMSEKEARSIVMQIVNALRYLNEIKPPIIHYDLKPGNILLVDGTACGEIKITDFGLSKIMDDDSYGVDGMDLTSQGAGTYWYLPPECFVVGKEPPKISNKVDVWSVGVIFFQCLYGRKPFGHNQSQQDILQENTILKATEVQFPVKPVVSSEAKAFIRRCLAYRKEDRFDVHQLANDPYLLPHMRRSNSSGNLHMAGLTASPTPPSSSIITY

[7] = molecular target: Potassium voltage-gated channel subfamily A member 5 (Homo sapiens) (UniProt P22460); assay: Selectivity interaction (Panel of kinases, GPCRs, ion channels and transporters (enzymatic assay)) EUB0000223bCl KCNA5
[8] = tested on: Receptor-type tyrosine-protein kinase FLT3 (Homo sapiens), P36888 [UNDEFINED MUTATION]; assay: Selectivity interaction (KinomeScan (DiscoverX)) EUB0001049a FLT3; conditions: at 1 µM
[9] = molecular target: Serine/threonine-protein kinase Nek6 (Homo sapiens) (UniProt Q9HC98); assay: Selectivity interaction (KinomeScan (DiscoverX)) EUB0000695a NEK6; conditions: at 100 nM
[10] = molecular target: Serine/threonine-protein kinase 32C (Homo sapiens) (UniProt Q86UX6); assay: Selectivity interaction (KinomeScan (DiscoverX)) EUB0000695a STK32C; conditions: at 100 nM
[11] = molecular target: Interleukin-1 receptor-associated kinase 1 (Homo sapiens) (UniProt P51617); assay: Selectivity interaction (KinomeScan (DiscoverX)) EUB0000618a IRAK1; conditions: at 10 µM
[12] = molecular target: Rho-associated protein kinase 1 (Homo sapiens) (UniProt Q13464); assay: Selectivity interaction (ActivX KiNativ screen (ex vivo kinase selectivity in human PBMCs)) EUB0001619a ROCK1; format: cell-based; conditions: PBMC, at 1 µM
Rho-associated protein kinase 1 (Homo sapiens), sequence (Q13464 2-1354 limits assumed): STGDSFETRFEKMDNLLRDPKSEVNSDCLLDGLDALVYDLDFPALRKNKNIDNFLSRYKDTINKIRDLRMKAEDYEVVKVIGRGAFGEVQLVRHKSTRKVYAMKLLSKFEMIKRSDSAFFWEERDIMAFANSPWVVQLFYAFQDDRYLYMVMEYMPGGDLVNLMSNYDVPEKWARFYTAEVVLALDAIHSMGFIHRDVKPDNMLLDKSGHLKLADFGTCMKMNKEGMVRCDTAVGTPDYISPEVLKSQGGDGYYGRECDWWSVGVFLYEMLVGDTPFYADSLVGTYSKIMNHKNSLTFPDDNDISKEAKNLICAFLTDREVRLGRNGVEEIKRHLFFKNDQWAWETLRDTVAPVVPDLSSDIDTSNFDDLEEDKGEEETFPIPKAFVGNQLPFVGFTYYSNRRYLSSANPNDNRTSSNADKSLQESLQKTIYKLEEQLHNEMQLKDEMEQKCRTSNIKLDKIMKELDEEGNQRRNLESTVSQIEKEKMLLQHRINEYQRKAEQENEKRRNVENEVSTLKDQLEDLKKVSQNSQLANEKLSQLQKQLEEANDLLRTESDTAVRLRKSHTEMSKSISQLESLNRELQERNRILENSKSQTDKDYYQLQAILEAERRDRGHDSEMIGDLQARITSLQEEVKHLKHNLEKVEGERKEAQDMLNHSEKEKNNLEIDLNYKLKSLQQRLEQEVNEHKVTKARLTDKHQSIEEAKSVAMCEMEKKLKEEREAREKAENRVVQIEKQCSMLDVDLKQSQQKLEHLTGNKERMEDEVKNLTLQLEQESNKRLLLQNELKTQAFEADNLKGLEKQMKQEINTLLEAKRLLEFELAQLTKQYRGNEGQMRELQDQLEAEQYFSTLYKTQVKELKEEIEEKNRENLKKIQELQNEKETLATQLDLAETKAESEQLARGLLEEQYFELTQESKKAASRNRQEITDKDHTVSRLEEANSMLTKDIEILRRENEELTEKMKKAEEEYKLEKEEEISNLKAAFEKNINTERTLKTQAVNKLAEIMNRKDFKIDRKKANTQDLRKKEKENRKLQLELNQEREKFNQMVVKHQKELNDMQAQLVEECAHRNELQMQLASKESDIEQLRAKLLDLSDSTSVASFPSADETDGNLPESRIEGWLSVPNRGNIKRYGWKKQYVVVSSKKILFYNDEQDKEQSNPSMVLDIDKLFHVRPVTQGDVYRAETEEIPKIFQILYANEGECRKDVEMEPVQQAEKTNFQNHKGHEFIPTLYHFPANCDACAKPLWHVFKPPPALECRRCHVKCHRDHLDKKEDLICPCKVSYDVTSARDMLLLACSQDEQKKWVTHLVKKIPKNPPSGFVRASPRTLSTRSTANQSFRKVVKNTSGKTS

Receptor-type tyrosine-protein kinase FLT3 (Homo sapiens), P36888 [UNDEFINED MUTATION], sequence (P36888 whole entry, looked up, change not shown): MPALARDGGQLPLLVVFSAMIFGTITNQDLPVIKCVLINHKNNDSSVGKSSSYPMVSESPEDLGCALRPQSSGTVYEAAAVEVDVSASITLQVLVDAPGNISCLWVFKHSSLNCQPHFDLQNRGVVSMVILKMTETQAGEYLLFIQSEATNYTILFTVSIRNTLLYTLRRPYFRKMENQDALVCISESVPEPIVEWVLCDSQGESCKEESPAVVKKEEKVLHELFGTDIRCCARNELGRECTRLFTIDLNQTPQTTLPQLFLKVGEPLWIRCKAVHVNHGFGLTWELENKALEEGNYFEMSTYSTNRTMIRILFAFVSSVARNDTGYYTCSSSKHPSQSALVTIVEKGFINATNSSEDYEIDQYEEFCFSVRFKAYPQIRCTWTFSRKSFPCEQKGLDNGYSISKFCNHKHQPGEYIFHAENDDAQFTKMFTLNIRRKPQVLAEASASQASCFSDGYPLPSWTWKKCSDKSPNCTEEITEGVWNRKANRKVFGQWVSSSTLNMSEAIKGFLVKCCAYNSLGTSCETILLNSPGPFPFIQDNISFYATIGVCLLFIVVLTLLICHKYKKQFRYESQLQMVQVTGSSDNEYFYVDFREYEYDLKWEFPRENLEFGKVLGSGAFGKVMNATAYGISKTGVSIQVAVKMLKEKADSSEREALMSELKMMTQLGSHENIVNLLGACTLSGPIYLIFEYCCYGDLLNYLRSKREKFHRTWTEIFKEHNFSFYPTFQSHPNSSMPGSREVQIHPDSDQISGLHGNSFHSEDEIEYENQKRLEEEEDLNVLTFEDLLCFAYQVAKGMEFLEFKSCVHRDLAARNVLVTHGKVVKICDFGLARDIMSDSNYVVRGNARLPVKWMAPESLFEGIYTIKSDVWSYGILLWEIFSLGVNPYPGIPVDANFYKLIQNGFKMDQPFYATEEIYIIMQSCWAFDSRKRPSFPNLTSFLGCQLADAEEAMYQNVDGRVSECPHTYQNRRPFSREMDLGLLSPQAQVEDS
Serine/threonine-protein kinase 32C (Homo sapiens), sequence (Q86UX6 whole entry): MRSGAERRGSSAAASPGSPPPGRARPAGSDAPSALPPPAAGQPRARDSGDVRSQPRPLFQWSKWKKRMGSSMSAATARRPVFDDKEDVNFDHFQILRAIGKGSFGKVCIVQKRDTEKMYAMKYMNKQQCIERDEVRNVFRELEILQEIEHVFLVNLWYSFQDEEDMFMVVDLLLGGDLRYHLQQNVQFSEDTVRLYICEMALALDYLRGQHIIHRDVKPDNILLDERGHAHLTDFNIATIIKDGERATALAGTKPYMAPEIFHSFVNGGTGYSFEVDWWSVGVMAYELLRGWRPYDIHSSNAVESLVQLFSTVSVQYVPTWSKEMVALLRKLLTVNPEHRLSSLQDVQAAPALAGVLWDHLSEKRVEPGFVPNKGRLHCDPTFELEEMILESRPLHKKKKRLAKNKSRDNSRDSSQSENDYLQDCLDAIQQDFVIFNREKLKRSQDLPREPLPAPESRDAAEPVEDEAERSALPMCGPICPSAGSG
Serine/threonine-protein kinase/endoribonuclease IRE1 (Homo sapiens), sequence (O75460 19-977 limits assumed): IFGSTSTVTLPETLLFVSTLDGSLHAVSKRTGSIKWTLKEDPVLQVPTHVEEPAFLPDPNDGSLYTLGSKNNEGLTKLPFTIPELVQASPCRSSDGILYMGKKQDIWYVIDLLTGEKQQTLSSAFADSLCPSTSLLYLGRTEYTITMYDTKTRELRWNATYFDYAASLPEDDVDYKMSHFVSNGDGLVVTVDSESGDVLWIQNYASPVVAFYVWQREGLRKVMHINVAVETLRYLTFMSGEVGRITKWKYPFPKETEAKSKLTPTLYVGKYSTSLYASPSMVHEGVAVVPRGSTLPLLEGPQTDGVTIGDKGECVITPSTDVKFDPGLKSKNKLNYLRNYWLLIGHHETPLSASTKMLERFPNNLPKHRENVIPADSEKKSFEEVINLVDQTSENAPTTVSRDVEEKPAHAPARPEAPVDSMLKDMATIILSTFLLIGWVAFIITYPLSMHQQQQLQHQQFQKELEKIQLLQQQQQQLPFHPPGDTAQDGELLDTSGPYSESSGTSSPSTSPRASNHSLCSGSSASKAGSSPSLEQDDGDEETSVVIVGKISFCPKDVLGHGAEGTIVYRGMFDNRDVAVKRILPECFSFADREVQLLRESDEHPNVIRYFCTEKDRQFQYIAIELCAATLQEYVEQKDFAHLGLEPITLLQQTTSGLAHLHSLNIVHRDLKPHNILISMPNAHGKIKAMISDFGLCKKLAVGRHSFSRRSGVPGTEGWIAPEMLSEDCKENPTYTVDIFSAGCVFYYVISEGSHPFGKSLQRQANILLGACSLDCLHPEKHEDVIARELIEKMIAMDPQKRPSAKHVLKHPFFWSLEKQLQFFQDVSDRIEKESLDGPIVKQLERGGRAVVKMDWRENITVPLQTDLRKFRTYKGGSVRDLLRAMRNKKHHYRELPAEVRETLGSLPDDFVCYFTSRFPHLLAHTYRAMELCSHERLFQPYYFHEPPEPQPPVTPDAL
Dual specificity mitogen-activated protein kinase kinase 1, sequence (Q02750 whole entry): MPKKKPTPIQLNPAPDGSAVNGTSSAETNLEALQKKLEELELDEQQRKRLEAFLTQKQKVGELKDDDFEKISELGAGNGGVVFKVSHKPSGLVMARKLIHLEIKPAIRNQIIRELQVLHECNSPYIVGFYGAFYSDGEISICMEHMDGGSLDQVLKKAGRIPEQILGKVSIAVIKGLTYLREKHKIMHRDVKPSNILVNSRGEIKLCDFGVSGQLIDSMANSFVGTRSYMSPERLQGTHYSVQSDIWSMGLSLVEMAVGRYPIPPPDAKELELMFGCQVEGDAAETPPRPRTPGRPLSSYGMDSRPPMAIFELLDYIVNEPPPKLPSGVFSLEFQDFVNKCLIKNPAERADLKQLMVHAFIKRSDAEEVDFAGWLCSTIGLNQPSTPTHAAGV
Potassium voltage-gated channel subfamily A member 5 (Homo sapiens), sequence (P22460 whole entry): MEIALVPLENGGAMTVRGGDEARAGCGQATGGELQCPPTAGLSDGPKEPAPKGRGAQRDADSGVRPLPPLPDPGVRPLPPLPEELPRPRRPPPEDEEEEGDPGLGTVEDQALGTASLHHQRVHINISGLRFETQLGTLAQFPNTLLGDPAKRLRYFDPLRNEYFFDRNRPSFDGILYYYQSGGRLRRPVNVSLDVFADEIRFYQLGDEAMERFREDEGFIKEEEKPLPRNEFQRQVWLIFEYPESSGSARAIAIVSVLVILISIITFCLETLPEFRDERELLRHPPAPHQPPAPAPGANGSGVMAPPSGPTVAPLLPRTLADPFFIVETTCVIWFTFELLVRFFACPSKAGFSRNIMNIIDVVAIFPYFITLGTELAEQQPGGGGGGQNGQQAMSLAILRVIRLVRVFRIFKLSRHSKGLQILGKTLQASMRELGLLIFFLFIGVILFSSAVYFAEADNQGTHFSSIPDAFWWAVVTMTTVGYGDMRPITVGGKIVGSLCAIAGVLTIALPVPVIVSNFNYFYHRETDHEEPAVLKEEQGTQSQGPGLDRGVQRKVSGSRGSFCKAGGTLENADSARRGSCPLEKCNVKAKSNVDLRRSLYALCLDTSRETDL

CN(C)CC#Cc1ccc2[nH]c3c(c2c1)-c1nc(N)ncc1CCC3
% of control [1]: 9.9%

C=CC(=O)Nc1ccc(C(=O)Nc2[nH]nc3c2CN(C(=O)N[C@H](CN(C)C)c2ccccc2)C3(C)C)cc1
% of engagement [2]: -2.2%

Cc1cc([C@@H](C)Nc2ccccc2C(=O)O)c2nc(N3CCOCC3)cc(=O)n2c1 [AZD-6482]
% of control [3]: 91%

Cn1cc(-n2cnc3c(NCc4nc5cc(Cl)c(Cl)cc5[nH]4)nc(N4CCOCC4)nc32)cn1
% of inhibition [4]: -20.2% | % of inhibition [5]: -15.4% | % of inhibition [6]: 5.47%

COc1cc(C(=O)N2CC[C@@H](O)[C@@H](N)C2)cc2nc(-c3cc4ccccc4n3CC3CC3)n(C)c12
pXC50 [7]: < 4.8 M

COc1cc(Nc2nc(C)cc(-c3cnn4nc(OC)ccc34)n2)cc(C(F)(F)F)c1
% of control [8]: 96%

Cc1cc(F)c(C(=O)Nc2cccc(-c3nncn3C(C)C)n2)cc1-n1cnc(C2CC2)c1
% of control [9]: 100% | % of control [10]: 100%

O[C@H]1CC[C@H](Nc2ncc3nc(Nc4c(F)cc(F)cc4F)n([C@H]4CCOC4)c3n2)CC1
% of control [11]: 38%

N#Cc1cccc(-c2c[nH]c3ncnc(N4CCOCC4)c23)c1
% of inhibition [12]: -3%

Reference: ChEMBL document CHEMBL5465560, “Selectivity Literature for EUbOPEN Chemogenomic Library” (2024)
